Reference: the supplement of paper PMC13380429

Tests used:
Details in all cases: 72 h
[1] = system: Calu-3; assay: cell viability relative to DMSO; higher = less toxic
[2] = system: HepG2; assay: as above
[3] = system: Vero E6; assay: as above
[4] = system: Caco-2; assay: as above
[5] = system: U2OS; assay: as above
[6] = system: Calu-3; assay: drug sensitivity score (DSS) for viability; higher = more toxic; extreme values may be limits of the assay
[7] = system: HepG2; assay: as above
[8] = system: Vero E6; assay: as above
[9] = system: Caco-2; assay: as above
[10] = system: U2OS; assay: as above
[11] = system: Calu-3; assay: relative viability EC50 (midpoint between 100% and the lowest measured viability); higher = less toxic
[12] = system: HepG2; assay: as above
[13] = system: Vero E6; assay: as above
[14] = system: Caco-2; assay: as above
[15] = system: U2OS; assay: as above

Row | SMILES | cell viability ([1]; 1 nM) [%] | cell viability ([1]; 10 nM) [%] | cell viability ([1]; 100 nM) [%] | cell viability ([1]; 1000 nM) [%] | cell viability ([1]; 10000 nM) [%] | cell viability ([2]; 1 nM) [%] | cell viability ([2]; 10 nM) [%] | cell viability ([2]; 100 nM) [%] | cell viability ([2]; 1000 nM) [%] | cell viability ([2]; 10000 nM) [%] | cell viability ([3]; 1 nM) [%] | cell viability ([3]; 10 nM) [%] | cell viability ([3]; 100 nM) [%] | cell viability ([3]; 1000 nM) [%] | cell viability ([3]; 10000 nM) [%] | cell viability ([4]; 1 nM) [%] | cell viability ([4]; 10 nM) [%] | cell viability ([4]; 100 nM) [%] | cell viability ([4]; 1000 nM) [%] | cell viability ([4]; 10000 nM) [%] | cell viability ([5]; 1 nM) [%] | cell viability ([5]; 10 nM) [%] | cell viability ([5]; 100 nM) [%] | cell viability ([5]; 1000 nM) [%] | cell viability ([5]; 10000 nM) [%] | drug sensitivity score [6] | drug sensitivity score [7] | drug sensitivity score [8] | drug sensitivity score [9] | drug sensitivity score [10] | relative viability EC50 [11] [µM] | relative viability EC50 [12] [µM] | relative viability EC50 [13] [µM] | relative viability EC50 [14] [µM] | relative viability EC50 [15] [µM]
1 | c1ccc(CC2=NCCN2)cc1 [tolazoline] | 103 | 103 | 87.3 | 98.4 | 114 | 97.3 | 102 | 101 | 108 | 99.9 | 108 | 111 | 104 | 106 | 98.6 | 103 | 93.1 | 97.5 | 95 | 98 | 99.9 | 97.9 | 102 | 101 | 101 | 0 | 0 | 0 | 0 | 0 | > 10 | > 10 | > 10 | > 10 | > 10
2 | Cc1cccc(N(C)C(=S)Oc2ccc3ccccc3c2)c1 [tolnaftate] | 98 | 90 | 94 | 94.6 | 101 | 100 | 100 | 91.6 | 97.9 | 93.8 | 101 | 102 | 98.5 | 91.8 | 88.6 | 93.3 | 99.7 | 94 | 94.8 | 96.8 | 99.1 | 99.2 | 94.9 | 100 | 93.3 | 0 | 0 | 0.1 | 0 | 0 | > 10 | > 10 | > 10 | > 10 | > 10
3 | Cc1ccc(C(=O)C(C)CN2CCCCC2)cc1 (stereo not given) [tolperisone] | 107 | 93.2 | 110 | 100 | 99.4 | 94.2 | 95 | 96.3 | 102 | 86.5 | 97.6 | 99.4 | 104 | 100 | 99.4 | 92.4 | 98.5 | 94.9 | 94.4 | 94.6 | 102 | 100 | 97.2 | 98.4 | 98.1 | 0 | 0.1 | 0 | 0 | 0 | > 10 | > 10 | > 10 | > 10 | > 10
4 | CC(=O)Oc1cc(C(F)(F)F)ccc1C(=O)O [triflusal] | 98.6 | 97.9 | 93.5 | 92.2 | 103 | 90.6 | 90.5 | 92.1 | 101 | 111 | 99.4 | 96.9 | 97.7 | 100 | 94.5 | 96 | 106 | 90 | 98.4 | 103 | 96.2 | 102 | 99.5 | 97.9 | 101 | 0 | 0 | 0 | 0 | 0 | > 10 | > 10 | > 10 | > 10 | > 10
5 | CCOC(=O)N[C@@H]1CC[C@@H]2[C@@H](C1)C[C@H]1C(=O)O[C@H](C)[C@H]1[C@H]2/C=C/c1ccc(-c2cccc(F)c2)cn1 [vorapaxar] | 98 | 95 | 102 | 94.3 | 99.9 | 105 | 112 | 100 | 99.9 | 94.3 | 92.5 | 103 | 99.8 | 92.7 | 105 | 90 | 93.2 | 103 | 105 | 83 | 102 | 98.7 | 102 | 102 | 89.1 | 0 | 0 | 0 | 0.2 | 0 | > 10 | > 10 | > 10 | > 10 | > 10
